# Measurements: US4637996A, “Antiulcer composition containing a dipeptide compound” (Nippon Zoki Pharmaceutical Co., Ltd., priority 1984, dated 1987)
# Test system: histamine-induced ulcer formation
# Assay: Inhibition of histamine-induced ulcer formation
# Type: in vivo, Wister strain rats
# Details: 20 mg/kg i.v., rats, histamine dihydrochloride 300 mg/kg i.p., 4 hours; for Ulcer coefficient (mean ± S.E.): sum of surface area of ulcer lesion
# Description: Immediately thereafter, 300 mg/kg of histamine dihydrochloride was administered intraperitoneally (i.p.) F. Burcher et al; [Beith. Path. Anat., 81, 391 (1928)]. Four hours later, each animal was bled to death by decapitation, and the stomach was removed. 7.5 ml of physiological saline was infused into the removed stomach and partially fixed in 10% formalin for 10 minutes. Then, the stomach was incised along the greater curvature. The sum of the surface area of the ulcer lesion on the glandular part of the stomach was designated as the ulcer coefficient.
Compound,Inhibition rate (%),Ulcer coefficient (mean ± S.E.)
CN/C(=N/CCSCc1nc[nH]c1C)NC#N [Cimetidine],57.6,19.1 ± 10.6
cyclic histidyllysine,66.8,14.9 ± 6.0
